Source: PubChem BioAssay (NCI)
Values joined by “and” are separate entries in the source; they are usually repeats but may differ in a detail not shown here. Equal values may be shown once.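 Method: 48-hour compound exposure of cells in 96-well plates, five concentrations, linear interpolation of endpoints. GI50 = concentration required for 50% inhibition of growth. TGI denotes the concentration required for complete inhibition of growth.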

Tests used:
Test in all cases: DTP human tumour cell line panel, 48 h
KM12 colon = tested on: KM12 colon
HOP-62 NSCLC = tested on: HOP-62 NSCLC
RPMI-8226 leukemia = tested on: RPMI-8226 leukemia
M14 melanoma = tested on: M14 melanoma
RXF 393 renal = tested on: RXF 393 renal
OVCAR-5 ovarian = tested on: OVCAR-5 ovarian
OVCAR-8 ovarian = tested on: OVCAR-8 ovarian
NCI-H23 lung = tested on: NCI-H23 lung
NCI-H522 lung = tested on: NCI-H522 lung
SK-MEL-28 melanoma = tested on: SK-MEL-28 melanoma

Structure (SMILES)	GI50 (KM12 colon)	TGI (KM12 colon)	GI50 (HOP-62 NSCLC)	TGI (HOP-62 NSCLC)	GI50 (RPMI-8226 leukemia)	TGI (RPMI-8226 leukemia)	GI50 (M14 melanoma)	TGI (M14 melanoma)	GI50 (RXF 393 renal)	TGI (RXF 393 renal)	GI50 (OVCAR-5 ovarian)	TGI (OVCAR-5 ovarian)	GI50 (OVCAR-8 ovarian)	TGI (OVCAR-8 ovarian)	GI50 (NCI-H23 lung)	TGI (NCI-H23 lung)	GI50 (NCI-H522 lung)	TGI (NCI-H522 lung)	GI50 (SK-MEL-28 melanoma)	TGI (SK-MEL-28 melanoma)
CC(=O)N[C@@H](Cc1ccc(OP(=O)(O)O)cc1)C(=O)N[C@H]1CCC(=O)N2CCC[C@@H](C(=O)NCc3cccc4ccccc34)N2C1=O	> 25 µM	> 25 µM	> 25 µM	> 25 µM	> 25 µM	> 25 µM	> 25 µM	> 25 µM	> 25 µM	> 25 µM	> 25 µM	> 25 µM	> 25 µM	> 25 µM	> 25 µM	> 25 µM	> 25 µM	> 25 µM	> 25 µM	> 25 µM
Nc1nc(N)c2cc(Sc3ccc(Cl)cc3)ccc2n1	1.34 µM	4.32 µM	1.49 µM	14.9 µM	1.95 µM	4.99 µM	0.535 µM	1.98 µM	1.03 µM	7.78 µM	2.05 µM	17.5 µM	0.961 µM	2.61 µM	1.38 µM	15.6 µM	1.35 µM	3.87 µM	2.68 µM	8.05 µM
CCN1C2=C(SC(=S)C1=C1SC(C(=O)c3ccccc3)=C(C(=O)c3ccccc3)S1)SC(=Nc1ccccc1)C2=O	51 µM	> 100 µM	21.7 µM	76.2 µM	2.13 µM	> 100 µM	> 100 µM	> 100 µM	9.09 µM	> 45.3 µM	> 100 µM	> 100 µM	2.34 µM	> 67.5 µM	5.43 µM	> 100 µM	5.43 µM	> 20.8 µM	26.4 µM	> 100 µM
CC(=O)OC1C(COC(N)=O)OC(n2c(-c3ccc(C)cc3)cc(-c3ccccc3)c(C#N)c2=O)C(OC(C)=O)C1OC(C)=O (stereo not given)		> 100 µM		> 100 µM		> 100 µM		> 100 µM		> 100 µM		> 100 µM		> 100 µM		> 100 µM		> 100 µM		> 100 µM
CC[n+]1c(/C=C/c2ccc(N3CCCC3)cc2)cccc1/C=C/c1ccc(N2CCCC2)cc1	0.116 µM	0.238 µM	0.414 µM	1.46 µM	0.0072 µM and 0.0149 µM	0.131 µM and 0.261 µM	0.345 µM	1.85 µM	0.207 µM	1.51 µM	0.476 µM	1.48 µM	0.248 µM and 0.124 µM	1.61 µM and 0.953 µM	0.0743 µM and 0.0876 µM	0.982 µM and 1.41 µM	0.239 µM	2.08 µM	0.194 µM and 0.169 µM	0.374 µM and 0.321 µM
Cc1ccc(S(=O)OC2c3ccccc3Cc3ccccc32)cc1 (stereo not given)		39.2 µM		34.3 µM		> 100 µM		33.8 µM		26.8 µM		31.7 µM		28.9 µM		33.8 µM		27.1 µM		33.8 µM
COC(=O)C(=O)C(C(=O)C(=O)Nc1ccccc1C(N)=O)c1nc2ccc([N+](=O)[O-])cc2[nH]c1=O (stereo not given)		> 100 µM		> 100 µM		> 100 µM		> 100 µM		> 100 µM		> 100 µM		> 100 µM		> 100 µM		> 100 µM		> 100 µM
O=C(O)c1cc(C(=O)C(=O)c2cc(C(=O)O)c(O)c3ccccc23)c2ccccc2c1O		> 100 µM		> 100 µM		> 100 µM		> 100 µM		> 100 µM		> 100 µM		> 100 µM		> 100 µM		> 100 µM		> 100 µM
Fc1ccc(-c2nn3c(COc4ccccc4Cl)nnc3s2)cc1Oc1ccccc1	43.1 µM	> 100 µM	19.4 µM	40.1 µM	51.1 µM	> 100 µM	24.4 µM	54.7 µM	> 100 µM	> 100 µM	33.2 µM	92.7 µM	49.9 µM	> 100 µM	21.2 µM	43.9 µM	29.6 µM	> 100 µM	54.6 µM	> 100 µM
COc1cc2cc(Oc3ccc(NC(=O)Nc4ccc(F)c(C(F)(F)F)c4)cc3)c(C)nc2cc1OCCN1CCOCC1	2.69 µM	10.6 µM	3.99 µM	20.5 µM	1.12 µM	4.25 µM	1.53 µM	3.31 µM	1.78 µM	3.94 µM	5.11 µM	21.7 µM	2.73 µM	> 100 µM	1.43 µM	5.88 µM	2.04 µM	9.43 µM	1.62 µM	3.13 µM
Cc1ccc(C)c(N2C(=O)C(=O)C(c3nc4ccccc4s3)C(=O)C2=O)c1		> 100 µM		> 100 µM		> 100 µM		> 100 µM		> 100 µM		> 100 µM		> 100 µM		> 100 µM		> 100 µM		> 100 µM
CCOC(=O)Nc1nc(-c2ccccc2)c(C)s1		> 100 µM		> 100 µM		> 100 µM		> 100 µM		> 100 µM		> 100 µM		> 100 µM		> 100 µM		> 100 µM		> 100 µM
Nc1ncnc2occ(-c3ccc(NC(=O)Nc4cc(C(F)(F)F)ccc4F)cc3)c12	0.133 µM and 0.115 µM	4.81 µM and 3.08 µM	6.32 µM and 2.3 µM	16.2 µM and 5.95 µM	6.29 µM and 5.04 µM	17.7 µM and 16.2 µM	5.86 µM and 2.54 µM	21.4 µM and 7.11 µM	2.95 µM and 1.11 µM	7.06 µM and 3.92 µM	6.44 µM and 5.95 µM	16.2 µM and 13.7 µM	4.76 µM and 1.95 µM	16.6 µM and 5.76 µM	4.62 µM and 2.09 µM	12.9 µM and 6.86 µM	5.48 µM and 1.91 µM	11.2 µM and 5.81 µM	5.73 µM and 4.57 µM	14.3 µM and 11.5 µM
N#CCC(=O)N/N=C(/C(=O)Nc1ccccc1)C1C(=O)N(c2ccccc2)N=C1N (stereo not given)		> 100 µM		> 100 µM		> 100 µM		> 100 µM		> 100 µM		> 100 µM		> 100 µM		> 100 µM		> 100 µM		> 100 µM
CC12OC(C(=O)C13CC3)C1C(=O)c3cccc(O)c3C(=O)C12 (stereo not given)	13.8 µM	38.1 µM	7.21 µM	19.7 µM	2.22 µM	> 100 µM	24.6 µM	63.5 µM	1.43 µM	9.3 µM	24.5 µM	> 66.3 µM	8.12 µM	> 38.5 µM	7.55 µM	22.7 µM	8.84 µM	> 76.9 µM	23.1 µM	> 61.4 µM
